Experimental data taken from ChEMBL document CHEMBL5729557, “5-membered heteroaryl carboxamide compounds for treatment of HBV” (2023).
“And” between values parts separate entries of the source, which are not always exact repeats. Equal entries are not always repeated.

assay: Assay Measuring Activity of Test Compounds on Viral Production from HepAD38 Cells: HepAD38 cells grown in a T-150 flask (Corning, cat #: 430825) with Growth Medium (DMEM/F12 (1:1) (Hyclone, cat #: SH30023.02), 1× Pen/Strep (Invitrogen, cat #: 15140-122), 10% FBS (Tissue Culture Biologics, cat #: 101), 250 μg/mL G418 (Alfa Aesar, cat #: J62671), 1 μg/mL Tetracycline (Teknova, cat #: T3320)) were detached with 0.25% trypsin-EDTA to (Invitrogen, cat #: 25200-056). Tetracycline-free treatment medium (15 mL DMEM/F12 (1:1) 1× Pen/step, with 2% FBS, Tet-system approved (Clontech, cat #: 631106) were then added to mix, transferred into a 50 ml conical tube (Falcon, cat #: 21008-918,) and spun at 1300 rpm for 5 min. Pelleted cells were then re-suspended/washed with 50 mL of 1×DPBS (Invitrogen, cat #: 14190-136) 2 times and 50 mL treatment medium twice. HepAD38 cells were then re-suspended with 10 mL of treatment medium, syringed and counted. Wells of 96-well clear bottom TC plate (Corning, cat #: 3904,) were seeded at 50,000 cells/well in 180 μL of treatment medium, and 20 μL of either 10% DMSO (Sigma, cat #: D4540) as controls or a 10× solution of test compounds in 10% DMSO in treatment media was added for a final compound concentration starting at 10 μM, and plates were incubated in 5% CO2 incubator at 37° C. for 5 days.Subsequently viral load production was assayed by quantitative PCR (qPCR) of the HBV core sequence. PCR reaction mixture containing forward primers HBV-f 5′-CTGTGCCTTGGGTGGCTTT-3′ (IDT DNA), Reverse primers HBV-r 5′-[…]-3′ (IDT DNA), Fluorescent TaqMan™ Probes HBV-probe 5′-FAM/AGCTCCAAA/ZEN/[…]/3IABkFQ-3′ (IDT DNA), 10 μL/well of PerfeCTa® qPCR ToughMix® (Quanta Biosciences, Cat #: 95114-05K), and 6 μL/well of DEPC water (Alfa Aesar, cat #: J62087) was prepared. […] of supernatant was added to 16 μL of the reaction mixture in a qPCR plate (Applied Biosytems, Cat #: 4309849), sealed with a film (Applied Biosystems, Cat #: 4311971), centrifuged for a few seconds, and subsequently run on an Applied Biosystems VIIA7. The PCR mixture was incubated at 45° C. for 5 min, then 95° C. for 10 min, followed by 40 cycles of 10 seconds at 95° C. and 20 seconds at 60° C. Viral load was quantified against known HBV DNA standards by using ViiA™ 7 Software. Viral load in the supernatant from wells with treated cells were compared against viral load in supernatant from DMSO control wells (>3 per plate). Cell viability assay was performed with CellTiter-Glo Luminescent Cell Viability Assay (Promega, cat #: G7573) with modification. Mixed appropriate amount of CellTiter-Glo (CTG) 1×DPBS in a 1:1 ratio, added 100 uL of the mixture to each well followed completely removal of all supernatant in each well without touching cell surface. Incubated the plate at room temperature for 10 min on an orbital shaker, and then read the plate with a plate reader (TECAN M1000 or Envision).; conditions: not given

Q: Which EC50 does the source give for `COc1ccc([C@H]2CC[C@H](c3nn(C)c(N)c3C(=O)Nc3ccc(F)c(Cl)c3)C2)cc1` here?
A: < 0.1 µM

Q: With `Cn1nc(C2CC3COC(=O)CC3C2)c(C(=O)Nc2ccc(F)c(Cl)c2)c1N` (configuration not stated) as the compound, how does the EC50 read?
A: < 0.1 µM

Q: Which EC50 does the source give for `Cn1nc(C2CC3CC(O)(CS(=O)(=O)NC4CC4)CC3C2)c(C(=O)Nc2ccc(F)c(Cl)c2)c1N` (configuration not stated) here?
A: in the range around 0.3 µM and < 0.1 µM

same assay, conditions: HePAD38

Q: With `Cn1nc([C@@H]2CC3CC(O)(C[S+]([O-])CC(F)(F)F)C[C@H]3C2)c(C(=O)Nc2ccc(F)c(Cl)c2)c1N` (some centres not stated) as the compound, how does the EC50 read?
A: < 0.1 µM

Q: For `COc1cc(-c2ncc[nH]2)ccc1[C@@H]1CC[C@@H](c2nn(C)c(N)c2C(=O)Nc2ccc(F)c(Cl)c2)C1`, which EC50 is on record?
A: < 0.1 µM

Q: With `CNC(=O)C1CC2CC(c3nn(C)c(N)c3C(=O)Nc3ccc(F)c(Cl)c3)CC2C1` (configuration not stated) as the compound, how does the EC50 read?
A: < 0.1 µM

Q: Which EC50 does the source give for `Cn1cc([C@H]2CC[C@H](c3nn(C)c(N)c3C(=O)Nc3ccc(F)c(Cl)c3)C2)cn1` here?
A: in the range around 0.3 µM

Q: Which EC50 does the source give for `Cn1nc([C@@H]2CC3CC(O)(CS(=O)(=O)CCO)C[C@H]3C2)c(C(=O)Nc2ccc(F)c(Cl)c2)c1N` (some centres not stated) here?
A: < 0.1 µM

Q: For `Cn1nc(C2CC3CC(N4CCC4)CC3C2)c(C(=O)Nc2ccc(F)c(Cl)c2)c1N` (configuration not stated), which EC50 is on record?
A: in the range around 0.3 µM

Q: For `COc1ccc([C@H]2CC[C@H](c3nn(C)c(N)c3C(=O)Nc3ccc(F)c(Cl)c3)C2)cc1`, which EC50 is on record?
A: < 0.1 µM

Q: Which EC50 does the source give for `Cn1nc(C2CCC(c3cnc(C(F)(F)F)s3)C2)c(C(=O)Nc2ccc(F)c(Cl)c2)c1N` (configuration not stated) here?
A: in the range around 5.25 µM

Q: For `Cn1nc(C2CC3CC(O)(CC(=O)O)CC3C2)c(C(=O)Nc2ccc(F)c(Cl)c2)c1N` (configuration not stated), which EC50 is on record?
A: < 0.1 µM

Q: For `Cn1nc(C2CC3CC(O)(COCC(F)(F)F)CC3C2)c(C(=O)Nc2ccc(F)c(Cl)c2)c1N` (configuration not stated), which EC50 is on record?
A: < 0.1 µM

Q: For `CN(C)S(=O)(=O)CC1(O)CC2CC(c3nn(C)c(N)c3C(=O)Nc3ccc(F)c(Cl)c3)CC2C1` (configuration not stated), which EC50 is on record?
A: < 0.1 µM

Q: With `CN1CC2CC(c3nn(C)c(N)c3C(=O)Nc3ccc(F)c(Cl)c3)CC2C1` (configuration not stated) as the compound, how does the EC50 read?
A: in the range around 5.25 µM

Q: With `Cn1nc([C@@H]2CC3C[S+]([O-])C[C@H]3C2)c(C(=O)Nc2ccc(F)c(Cl)c2)c1N` (some centres not stated) as the compound, how does the EC50 read?
A: in the range around 5.25 µM

Q: With `Cn1cc([C@@H]2CC[C@@H](c3nn(C)c(N)c3C(=O)Nc3ccc(F)c(Cl)c3)C2)cn1` as the compound, how does the EC50 read?
A: in the range around 0.3 µM

Q: With `CNC1CC2CC(c3nn(C)c(N)c3C(=O)Nc3ccc(F)c(Cl)c3)CC2C1` (configuration not stated) as the compound, how does the EC50 read?
A: in the range around 0.3 µM

Q: With `Cn1nc(C2CC3CN(C(=O)OC(C)(C)C)CC3C2)c(C(=O)Nc2ccc(F)c(Cl)c2)c1N` (configuration not stated) as the compound, how does the EC50 read?
A: < 0.1 µM

Q: Which EC50 does the source give for `Cn1nc(C2CC3CN(S(C)(=O)=O)CC3C2)c(C(=O)Nc2ccc(F)c(Cl)c2)c1N` (configuration not stated) here?
A: < 0.1 µM

Q: Which EC50 does the source give for `Cn1nc(C2CCC(c3ccc(F)cc3)C2)c(C(=O)Nc2ccc(F)c(Cl)c2)c1N` (configuration not stated) here?
A: < 0.1 µM

Q: For `Cn1nc(C2CC3CC(n4cccn4)CC3C2)c(C(=O)Nc2ccc(F)c(Cl)c2)c1N` (configuration not stated), which EC50 is on record?
A: < 0.1 µM

Q: For `Cn1nc([C@@H]2CC3CC(O)(CSC(C)(C)C)C[C@H]3C2)c(C(=O)Nc2ccc(F)c(Cl)c2)c1N` (some centres not stated), which EC50 is on record?
A: < 0.1 µM

Q: Which EC50 does the source give for `Cn1nc(C2CC3CC(N4CCOCC4)CC3C2)c(C(=O)Nc2ccc(F)c(Cl)c2)c1N` (configuration not stated) here?
A: < 0.1 µM

Q: With `COc1cc(-c2cnn(C)c2)ccc1C1CCC(c2nn(C)c(N)c2C(=O)Nc2ccc(F)c(Cl)c2)C1` (configuration not stated) as the compound, how does the EC50 read?
A: in the range around 0.3 µM

Q: With `CCS(=O)(=O)CC1(O)CC2C[C@@H](c3nn(C)c(N)c3C(=O)Nc3ccc(F)c(Cl)c3)C[C@@H]2C1` (some centres not stated) as the compound, how does the EC50 read?
A: < 0.1 µM

Q: With `Cn1nc([C@H]2CC3CC(O)(C[S+]([O-])CC(F)(F)F)C[C@@H]3C2)c(C(=O)Nc2ccc(F)c(Cl)c2)c1N` (some centres not stated) as the compound, how does the EC50 read?
A: < 0.1 µM

Q: For `Cn1nc(C2CC3CC(O)(COC(F)F)CC3C2)c(C(=O)Nc2ccc(F)c(Cl)c2)c1N` (configuration not stated), which EC50 is on record?
A: < 0.1 µM

Q: With `Cn1nc(C2CC3CNCC3C2)c(C(=O)Nc2ccc(F)c(Cl)c2)c1N` (configuration not stated) as the compound, how does the EC50 read?
A: in the range around 5.25 µM

Q: Which EC50 does the source give for `Cn1nc([C@@H]2CC3CC(O)(CN4CCOCC4)C[C@H]3C2)c(C(=O)Nc2ccc(F)c(Cl)c2)c1N` (some centres not stated) here?
A: in the range around 0.3 µM

Q: Which EC50 does the source give for `COCCOc1ccc(C2CCC(c3nn(C)c(N)c3C(=O)Nc3ccc(F)c(Cl)c3)C2)cc1` (configuration not stated) here?
A: < 0.1 µM

Q: For `COc1cccc([C@H]2CC[C@H](c3nn(C)c(N)c3C(=O)Nc3ccc(F)c(Cl)c3)C2)c1`, which EC50 is on record?
A: < 0.1 µM

Q: For `Cn1cc([C@H]2CC[C@@H](c3nn(C)c(N)c3C(=O)Nc3ccc(F)c(Cl)c3)C2)cn1`, which EC50 is on record?
A: < 0.1 µM

Q: Which EC50 does the source give for `Nc1[nH]nc(C2CC3CC(=O)CC3C2)c1C(=O)Nc1ccc(F)c(Cl)c1` (configuration not stated) here?
A: in the range around 0.3 µM

Q: For `Cn1nc([C@@H]2CC3COC(=O)C[C@@H]3C2)c(C(=O)Nc2ccc(F)c(Cl)c2)c1N` (some centres not stated), which EC50 is on record?
A: in the range around 0.3 µM

Q: Which EC50 does the source give for `Cn1nc([C@@H]2CC3CC(O)(CSCC(F)(F)F)C[C@@H]3C2)c(C(=O)Nc2ccc(F)c(Cl)c2)c1N` (some centres not stated) here?
A: < 0.1 µM

Q: With `Cn1nc(C2CC3COC(=O)CC3C2)c(C(=O)Nc2ccc(F)c(Cl)c2)c1N` (configuration not stated) as the compound, how does the EC50 read?
A: < 0.1 µM
